Columns and labels:
Assay type in all cases: cell-based
[1] = target: Sodium-dependent dopamine transporter (Homo sapiens, UniProt Q01959); assay: Inhibition of dopamine reuptake at human dopamine transporter expressed in HEK293 cells after 5 mins by scintillation counting
[2] = target: Sodium-dependent noradrenaline transporter (Homo sapiens, UniProt P23975); assay: Inhibition of noradrenaline reuptake at human noradrenaline transporter expressed in HEK293 cells after 15 mins by scintillation counting
Chain of Sodium-dependent noradrenaline transporter (P23975 whole entry): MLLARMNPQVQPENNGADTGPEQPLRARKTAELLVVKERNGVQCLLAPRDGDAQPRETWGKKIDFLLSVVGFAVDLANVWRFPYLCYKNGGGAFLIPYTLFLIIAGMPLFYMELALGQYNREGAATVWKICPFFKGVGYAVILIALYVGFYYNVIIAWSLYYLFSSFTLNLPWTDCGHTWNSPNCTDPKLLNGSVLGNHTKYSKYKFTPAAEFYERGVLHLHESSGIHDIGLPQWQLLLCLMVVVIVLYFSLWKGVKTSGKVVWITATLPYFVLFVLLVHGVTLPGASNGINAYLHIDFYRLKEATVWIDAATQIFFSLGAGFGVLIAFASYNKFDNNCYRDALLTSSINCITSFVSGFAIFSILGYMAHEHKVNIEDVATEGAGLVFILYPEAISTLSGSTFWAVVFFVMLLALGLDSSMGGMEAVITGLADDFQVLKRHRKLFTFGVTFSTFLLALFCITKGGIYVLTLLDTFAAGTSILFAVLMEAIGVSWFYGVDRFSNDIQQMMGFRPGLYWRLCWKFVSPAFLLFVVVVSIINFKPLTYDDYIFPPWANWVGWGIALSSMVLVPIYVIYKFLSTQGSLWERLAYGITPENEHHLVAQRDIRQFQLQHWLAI

[3] = target: Sodium-dependent serotonin transporter (Homo sapiens, UniProt P31645); assay: Inhibition of serotonin reuptake at human serotonin transporter expressed in HEK293 cells after 5 mins by scintillation counting
Chain of Sodium-dependent serotonin transporter (P31645 whole entry): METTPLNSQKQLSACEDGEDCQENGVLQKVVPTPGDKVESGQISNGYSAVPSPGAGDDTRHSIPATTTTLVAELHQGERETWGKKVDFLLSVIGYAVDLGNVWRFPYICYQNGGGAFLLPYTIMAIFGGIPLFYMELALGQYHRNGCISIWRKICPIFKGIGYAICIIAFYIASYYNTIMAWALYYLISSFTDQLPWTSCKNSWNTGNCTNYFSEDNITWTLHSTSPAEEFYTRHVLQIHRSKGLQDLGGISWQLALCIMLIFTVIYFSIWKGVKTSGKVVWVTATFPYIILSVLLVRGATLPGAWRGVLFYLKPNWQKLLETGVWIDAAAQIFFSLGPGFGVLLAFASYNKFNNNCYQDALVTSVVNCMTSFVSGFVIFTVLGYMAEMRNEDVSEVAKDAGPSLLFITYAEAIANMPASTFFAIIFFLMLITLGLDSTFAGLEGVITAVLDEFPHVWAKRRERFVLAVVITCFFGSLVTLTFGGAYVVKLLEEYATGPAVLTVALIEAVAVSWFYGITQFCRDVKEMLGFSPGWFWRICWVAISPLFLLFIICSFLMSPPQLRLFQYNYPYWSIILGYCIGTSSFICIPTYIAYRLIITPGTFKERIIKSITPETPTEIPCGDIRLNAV

[4] = target: Voltage-gated inwardly rectifying potassium channel KCNH2 (Homo sapiens, UniProt Q12809); assay: Displacement of [3H]dofetilide from human ERG expressed in HEK293 cells
Chain of Voltage-gated inwardly rectifying potassium channel KCNH2 (Q12809 whole entry): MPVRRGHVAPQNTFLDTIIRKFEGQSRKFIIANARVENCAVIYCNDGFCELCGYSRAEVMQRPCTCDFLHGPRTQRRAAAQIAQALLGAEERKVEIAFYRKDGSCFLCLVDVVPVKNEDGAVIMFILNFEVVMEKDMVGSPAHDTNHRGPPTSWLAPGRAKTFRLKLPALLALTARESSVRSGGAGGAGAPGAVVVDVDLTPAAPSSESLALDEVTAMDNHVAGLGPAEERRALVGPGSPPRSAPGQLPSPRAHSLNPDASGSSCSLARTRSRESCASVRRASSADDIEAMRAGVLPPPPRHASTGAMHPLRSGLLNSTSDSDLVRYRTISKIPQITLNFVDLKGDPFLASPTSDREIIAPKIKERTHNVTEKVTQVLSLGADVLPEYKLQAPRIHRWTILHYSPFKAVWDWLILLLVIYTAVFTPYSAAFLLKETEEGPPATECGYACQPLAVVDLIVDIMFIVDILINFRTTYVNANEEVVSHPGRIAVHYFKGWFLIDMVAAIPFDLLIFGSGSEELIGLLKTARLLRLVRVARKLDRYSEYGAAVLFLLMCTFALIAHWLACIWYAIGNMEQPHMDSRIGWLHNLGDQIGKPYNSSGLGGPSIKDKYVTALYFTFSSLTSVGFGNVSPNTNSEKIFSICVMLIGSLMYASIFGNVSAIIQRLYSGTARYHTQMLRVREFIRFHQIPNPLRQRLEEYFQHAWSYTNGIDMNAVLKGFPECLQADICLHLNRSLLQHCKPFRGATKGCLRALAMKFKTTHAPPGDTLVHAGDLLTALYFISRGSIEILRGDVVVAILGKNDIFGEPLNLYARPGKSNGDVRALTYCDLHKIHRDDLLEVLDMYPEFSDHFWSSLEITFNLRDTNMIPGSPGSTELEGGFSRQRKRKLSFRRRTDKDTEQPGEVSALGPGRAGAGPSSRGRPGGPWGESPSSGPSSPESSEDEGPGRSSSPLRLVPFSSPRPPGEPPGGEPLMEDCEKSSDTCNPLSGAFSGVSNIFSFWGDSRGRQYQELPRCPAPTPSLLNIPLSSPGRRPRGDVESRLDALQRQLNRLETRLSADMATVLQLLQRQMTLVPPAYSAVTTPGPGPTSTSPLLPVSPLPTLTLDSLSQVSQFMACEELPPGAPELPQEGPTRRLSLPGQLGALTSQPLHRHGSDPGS

Chain of Sodium-dependent dopamine transporter (Q01959 whole entry): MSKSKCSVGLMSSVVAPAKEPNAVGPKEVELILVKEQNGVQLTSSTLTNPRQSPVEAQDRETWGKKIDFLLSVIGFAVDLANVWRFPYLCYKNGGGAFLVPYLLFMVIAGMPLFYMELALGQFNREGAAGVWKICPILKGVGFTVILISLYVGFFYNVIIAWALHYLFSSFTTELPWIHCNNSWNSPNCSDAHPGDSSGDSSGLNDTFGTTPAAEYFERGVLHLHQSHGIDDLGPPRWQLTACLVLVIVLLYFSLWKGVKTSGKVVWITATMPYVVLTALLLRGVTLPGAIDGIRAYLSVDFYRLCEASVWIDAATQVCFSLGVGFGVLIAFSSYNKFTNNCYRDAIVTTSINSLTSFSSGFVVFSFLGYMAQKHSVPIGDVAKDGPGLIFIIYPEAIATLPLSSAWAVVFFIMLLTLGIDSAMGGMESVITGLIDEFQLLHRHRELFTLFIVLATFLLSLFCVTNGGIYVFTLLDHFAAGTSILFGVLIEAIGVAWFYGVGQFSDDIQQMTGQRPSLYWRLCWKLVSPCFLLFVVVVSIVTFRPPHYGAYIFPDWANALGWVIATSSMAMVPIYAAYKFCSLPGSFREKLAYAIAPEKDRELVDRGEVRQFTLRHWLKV

| IC50 [1] [µM] | IC50 [2] [nM] | IC50 [3] [nM] | Structure (SMILES) | Ki [4] [µM] |
| --- | --- | --- | --- | --- |
| > 40 | > 40000 | 28.3 | CCCN(C(=O)c1ccc2ccccc2c1)C1CCNCC1 | – |
| > 14 | 7500 | 15 | CC(C)N(C(=O)c1ccc2ccccc2c1)[C@@H]1CCNC1 | – |
| > 28 | 357 | 15 | Cc1c(C(=O)N(CC(C)(C)C)[C@H]2CCNC2)ccc(Cl)c1Cl | – |
| > 68 | 7000 | 17 | CS(=O)(=O)N(Cc1ccc2ccccc2c1)[C@@H]1CCNC1 | 4.2 |
| 7.4 | 677 | 12 | O=C(c1ccc2ccccc2c1)N(C1CCCC1)[C@@H]1CCNC1 | – |
| > 40 | 5700 | 7 | Cc1c(C(=O)N(C(C)C)[C@@H]2CCNC2)ccc(Cl)c1Cl | – |
| 0.744 | 24 | 3 | CC(C)CN(C(=O)c1ccc2ccccc2c1)[C@H]1CCNC1 | – |
| 2.8 | 370 | 3.5 | CS(=O)(=O)N(Cc1ccc2ccccc2c1)[C@H]1CCNC1 | 11 |
| 1.5 | 8900 | 4.5 | CC(=O)N(Cc1ccc2ccccc2c1)C1CCNCC1 | > 20 |
| – | – | 58 | Cc1c(C(=O)N(C)[C@@H]2CCNC2)ccc(Cl)c1Cl | – |
| 4.9 | 2500 | 3.5 | CS(=O)(=O)N(Cc1ccc2ccccc2c1)C1CCNCC1 | 3.2 |
| 5.8 | 6000 | 9 | O=C(c1ccc2ccccc2c1)N(C1CCC1)[C@@H]1CCNC1 | – |
| 0.266 | 224 | 2.4 | CCC(=O)N(Cc1ccc2ccccc2c1)[C@@H]1CCNC1 | – |
| > 28 | 735 | 4.6 | Cc1c(CN([C@@H]2CCNC2)S(C)(=O)=O)ccc2cc(F)ccc12 | 1.6 |
| – | 1200 | 5 | CC(C)CN(C(=O)c1ccc2ccccc2c1)[C@@H]1CCNC1 | 7 |
| > 12 | 726 | 5.2 | CC(=O)N(Cc1ccc2ccccc2c1)[C@@H]1CCNC1 | – |
| > 40 | > 40000 | 10 | O=C(c1ccc2ccccc2c1)N(C1CCC1)C1CCNCC1 | > 10 |

| Structure (SMILES) | IC50 [1] [µM] | IC50 [2] [nM] | IC50 [3] [nM] | Ki [4] [µM] |
| --- | --- | --- | --- | --- |
| CCC(=O)N(Cc1ccc2ccccc2c1)C1CCNCC1 | 0.339 | 1300 | 1 | 12 |
| c1cnc(N(Cc2ccc3ccccc3c2)C2CCNCC2)nc1 | 1.3 | 1200 | 10 | – |
| CN(C(=O)c1ccc(Cl)c(Cl)c1)[C@@H]1CCNC1 | – | – | > 400 | – |
| CCN(C(=O)c1ccc(Cl)c(Cl)c1C)[C@@H]1CCNC1 | > 40 | 17400 | 10 | – |
| O=C(NC1CCNCC1)c1ccc2ccccc2c1 | – | – | > 400 | – |
| c1ccc2cc(COC3CCNCC3)ccc2c1 [LITOXETINE] | 6.7 | 1400 | 5.9 | – |

Source: ChEMBL document CHEMBL1156048, “Design and optimisation of selective serotonin re-uptake inhibitors with high synthetic accessibility: part 2” (Bioorg Med Chem Lett, 2009)
